Results taken from patent US20080031950A1, “Novel anelgesic combination” (NECTID INC., priority 2007, published 2008).
Structures can show the parent of a compound that is named as a salt.

System: patients suffering from Chronic non-cancer pain (CNCP)
Test: Controlled human clinical trial, pain scored by visual analogue scale (VAS)
Format: in vivo
Conditions: mean ± SD, N = 10
Protocol: A typical study determined the efficacy of tramadol and […] as monotherapy and a combination of naproxen and a slow release tramadol for the treatment of pain and pain related conditions
• Tramadol hydrochloride: Generic Tramadol Hydrochloride tablets 50 mg, • Naproxen: Generic Neproxen tablets 250 mg • Slow Release Tramadol Hydrochloride: a) Example 1, b) Ultram ER 100 mg
• Treatment Drugs per day per patient • 1. Treatment A; Tramadol hydrochloride 100 mg • 2. Treatment B: Naproxen 250 mg • 3. Treatment C: Example 1 • 4. Treatment D: Ultram ER 100 mg+Naproxen 250 mg • 5. Treatment E: Example 2
The administered dosage comprised either tramadol hydrochloride (100 mg) or naproxen 250 mg or a combination of naproxen (250 mg) and slow release tramadol hydrochloride (100 mg) selected from Treatments D or a combination of naproxen 250 mg and a slow release tramadol 100 mg (Treatment C) was administered once a day to the patients in a long-term clinical trial.
40 patients were used in a clinical trial were suffering from Chronic non-cancer pain (CNCP), defined as pain for longer than 6 months, including neuropathic pain, osteoarthritis, rheumatoid arthritis, fibromyalgia, and back and musculoskeletal pain were included in the clinical trial. No effort was made to segregate the patients based on the type of pain nor did we evaluate the extent of pain relief on the basis of pain type.
Those patients with migraines, dental pain, abdominal pains (from chronic pancreatitis, kidney stones, etc.) and ischemic pain from vascular disease were excluded because they are usually not classified as CNCP. Patients with history of addiction (alcohol or drugs) were excluded from the trials
Randomization was performed with computer-generated random numbers in blocks of 10. Randomization codes of the monotherapy or combination therapy treatments were placed in sequentially numbered, opaque, sealed envelopes in the biopsy center.
Pain was assessed using a visual analogue scale (VAS) graded from 0-100 mm. Pain scoring was performed every three hours after drug administration for a total of 48 hours.
The patients were taught with a standard method by the physician how to use a VAS scoring from 0 to 100 mm to grade the intensity of pain experienced during the treatment. On that scale, the left endpoint, 0, was defined as no pain and the right endpoint 100, as the worst pain the patient could imagine. There were no further marks on the line. The intensity of pain was indicated by the distance in millimeters from the left end. Patients were asked to grade the pain intensity immediately after the administration of drugs and every three hour after for 24 hours by drawing a vertical line over each VAS line. The doctors who prescribed the medicines obtained all the VAS forms for that specific patient.
Data are expressed as means±SD. Differences in VAS were analyzed with use of the unpaired Student t test and differences in pain score reductions between the two groups were analyzed with use of the Mann-Whitney U test for the median difference. Similar statistical tests were used for between group comparisons of other outcome variables as appropriate. A two tailed P value of less than. […] SAS software was used for the statistical analysis.
We considered that a clinically significant benefit of using […] and slow release tramadol would be a reduction in the pain score (VAS) of at least 15% compared to the monotherapy with either tramadol hydrochloride or naproxen or placebo. Alternatively, the dose reduction of at least 15% of either NSAID or tramadol when used as combination over the monotherapy as significant benefit

[1] = VAS time 0 hours, scale 0-100 mm

For `COc1cccc([C@@]2(O)CCCC[C@@H]2CN(C)C)c1` (racemic) [Treatment A, (±) cis-2-[(dimethylamino)methyl]-1-(3-methoxyphenyl)cyclo-hexanol hydrochloride], the “Pain scored by VAS” value [1] was 32.4 ± 21.2 mm, the “Pain scored by VAS” value (VAS time 3 hours) was 23.1 ± 20.1 mm and the “Pain scored by VAS” value (VAS time 6 hours) was 18.8 ± 20.6 mm. The “Pain scored by VAS” value (VAS time 9 hours) was 14.9 ± 17.2 mm, the “Pain scored by VAS” value (VAS time 12 hours) was 13.1 ± 21.2 mm and the “Pain scored by VAS” value (VAS time 15 hours) was 13.9 ± 19.2 mm. For the same molecule, the “Pain scored by VAS” value (VAS time 18 hours) was 15.4 ± 21.3 mm, the “Pain scored by VAS” value (VAS time 21 hours) was 14.5 ± 19.2 mm and the “Pain scored by VAS” value (VAS time 24 hours) was 13.9 ± 19.2 mm.

`COc1ccc2cc([C@H](C)C(=O)O)ccc2c1` [Treatment B, (+)-(S)-2-(6-methoxynaphthalen-2-yl)propanoic acid] was tested, and the “Pain scored by VAS” value [1] was 33.9 ± 19.1 mm, the “Pain scored by VAS” value (VAS time 3 hours) was 18.5 ± 19.1 mm and the “Pain scored by VAS” value (VAS time 6 hours) was 13.9 ± 21.1 mm. The “Pain scored by VAS” value (VAS time 9 hours) was 13.8 ± 20.3 mm, the “Pain scored by VAS” value (VAS time 12 hours) was 14.6 ± 18.6 mm and the “Pain scored by VAS” value (VAS time 15 hours) was 17.1 ± 21.5 mm. The “Pain scored by VAS” value (VAS time 18 hours) was 18.9 ± 19.7 mm, the “Pain scored by VAS” value (VAS time 21 hours) was 20.1 ± 18.3 mm and the “Pain scored by VAS” value (VAS time 24 hours) was 24.8 ± 20.9 mm.
